According to patent publication US9056840B2, “Coelenterazine analogues and coelenteramide analogues” (JNC Corporation, priority 2010, dated 2015):

Legend:
Format in all cases: physicochemical
apoaequorin [1] = biological target: T1, apoaequorin (Aequorea victoria, UniProt P07164); assay: Fluorescence spectra of semi-synthetic gFP (coelenteramide analogue + apoaequorin, EDTA); conditions: 10 mM EDTA buffer, excitation 337 nm
T1 construct: purchased Chisso Corporation
Method: Semi-synthetic gFP was prepared from recombinant apoaequorin and coelenteramide analogues as follows. In 1 ml of 50 mM Tris-HC 1 (pH 7.6) containing 10 mM EDTA and 1 mM DTT, apoaequorin (0.2 mg) was mixed with 8 μl of a coelenteramide analogue (1 μg/μl in anhydrous methanol). The mixture was allowed to stand 4° C. for 16 hours to prepare semi-synthetic gFP-like protein (hereinafter sometimes simply referred to as “semi-synthetic gFP”).
(§1) The fluorescence spectra were determined as follows. For coelenteramide analogue alone, the fluorescence was measured according to the procedures for semi-synthetic gFP and semi-synthetic BFP described in EXAMPLES 11 and 12, except for in the absence of apoaequorin, using 1 ml of 50 mM Tris-HCl (pH 7.6) containing 10 mM EDTA and 1 mM DTT or 1 ml of 50 mM Tris-HCl (pH 7.6) containing 10 mM CaCl2 and 1 mM DTT, in the final concentration of coelenteramide analogue adjusted to 8 μg/ml. The fluorescence spectra were measured at 25° C. in a quartz cell (10 mm light path length) using a Jasco FP-6500 spectrofluorometer (excitation wavelength: 337 nm, emission/excitation bandwidth: 3 nm; response: 0.5 sec, scan speed, 1000 nm/min).

apoaequorin [2] = biological target: T1, apoaequorin; assay: Fluorescence spectra of semi-synthetic BFP (coelenteramide analogue + apoaequorin, CaCl2); conditions: 10 mM CaCl2 buffer, excitation 337 nm
Method: Semi-synthetic gFP was prepared from recombinant apoaequorin and coelenteramide analogues as follows. In 1 ml of 50 mM Tris-HC 1 (pH 7.6) containing 10 mM CaCl2 and 1 mM DTT, apoaequorin (0.2 mg) was mixed with 8 μl of a coelenteramide analogue (1 μg/μl in anhydrous methanol). The mixture was allowed to stand at 4° C. for 16 hours to prepare semi-synthetic BFP-like protein (hereinafter sometimes simply referred to as “semi-synthetic BFP”).
as §1

[3] = Fluorescence spectra of coelenteramide analogue alone (absence of apoaequorin); conditions: analogue alone 8 μg/ml; for Coelenteramide (Buffer containing CaCl2) Fluorescence intensity (rlu) / Coelenteramide (Buffer containing CaCl2) Maximum fluorescence wavelength λmax (nm): 10 mM CaCl2 buffer pH 7.6, excitation 337 nm; for Coelenteramide (EDTA-containing buffer) Fluorescence intensity (rlu) / Coelenteramide (EDTA-containing buffer) Maximum fluorescence wavelength λmax (nm): 10 mM EDTA buffer pH 7.6, excitation 337 nm
Method: as §1

T1 sequence (P07164 other isoform, or with tags, fused parts or gaps with the stated changes): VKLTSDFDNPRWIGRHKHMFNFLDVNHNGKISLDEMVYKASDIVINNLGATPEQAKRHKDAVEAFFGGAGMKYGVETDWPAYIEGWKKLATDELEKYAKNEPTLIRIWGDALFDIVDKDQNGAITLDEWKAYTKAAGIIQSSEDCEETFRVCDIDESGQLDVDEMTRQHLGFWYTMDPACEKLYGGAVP

In the case of `O=C(Cc1ccc(O)cc1)Nc1ncc(-c2ccc(O)cc2)nc1-c1ccccc1` [Compound 4a, 2-(4-Hydroxyphenyl)-N-[5-(4-hydroxyphenyl)-3-phenylpyrazin-2-yl]acetamide], the “Semi-synthetic gFP (EDTA-containing buffer) Fluorescence intensity (rlu)” value (from here on “Semi-synthetic gFP … (rlu)”) (apoaequorin [1]) is reported as 82.9 rlu, the “Semi-synthetic gFP (EDTA-containing buffer) Maximum fluorescence wavelength λmax (nm)” value (from here on “Semi-synthetic gFP … (nm)”) (apoaequorin [1]) is reported as 521.5 nm and the Fluorescence intensity (apoaequorin [2]) is reported as 148.9 rlu. The “Semi-synthetic BFP (Buffer containing CaCl2) Maximum fluorescence wavelength λmax (nm)” value (shortened to “Semi-synthetic BFP”) (apoaequorin [2]) was 507.5 nm, the “Coelenteramide (Buffer containing CaCl2) Fluorescence intensity (rlu)” value [3] was 2.0 rlu and the “Coelenteramide (Buffer containing CaCl2) Maximum fluorescence wavelength λmax (nm)” value [3] was 467.5 nm. For the same molecule, the “Coelenteramide (EDTA-containing buffer) Fluorescence intensity (rlu)” value [3] was 1.9 rlu and the “Coelenteramide (EDTA-containing buffer) Maximum fluorescence wavelength λmax (nm)” value [3] was 471.0 nm.
For `O=C(Cc1ccc(O)cc1)Nc1ncc(-c2ccc(O)cc2)nc1/C=C/c1ccccc1` [Compound 4b], the “Semi-synthetic gFP … (rlu)” value (apoaequorin [1]) was 43.2 rlu, the “Semi-synthetic gFP … (nm)” value (apoaequorin [1]) was 530.0 nm and the Fluorescence intensity (apoaequorin [2]) was 52.7 rlu. The “Semi-synthetic BFP” value (apoaequorin [2]) was 544.5 nm, the “Coelenteramide (Buffer containing CaCl2) Fluorescence intensity (rlu)” value [3] was 9.4 rlu and the “Coelenteramide (Buffer containing CaCl2) Maximum fluorescence wavelength λmax (nm)” value [3] was 494.5 nm. For the same molecule, the “Coelenteramide (EDTA-containing buffer) Fluorescence intensity (rlu)” value [3] was 7.1 rlu and the “Coelenteramide (EDTA-containing buffer) Maximum fluorescence wavelength λmax (nm)” value [3] was 495.5 nm.
With `C=C(c1ccccc1)c1nc(-c2ccc(O)cc2)cnc1NC(=O)Cc1ccc(O)cc1` [Compound 4c, 2-(4-Hydroxyphenyl)-N-[5-(4-hydroxyphenyl)-3-(1-phenylvinyl)pyrazin-2-yl]acetamide] the “Semi-synthetic gFP … (rlu)” value (apoaequorin [1]) was 32.1 rlu, the “Semi-synthetic gFP … (nm)” value (apoaequorin [1]) was 499.0 nm and the Fluorescence intensity (apoaequorin [2]) was 25.6 rlu. The “Semi-synthetic BFP” value (apoaequorin [2]) was 492.5 nm, the “Coelenteramide (Buffer containing CaCl2) Fluorescence intensity (rlu)” value [3] was 12.4 rlu and the “Coelenteramide (Buffer containing CaCl2) Maximum fluorescence wavelength λmax (nm)” value [3] was 471.0 nm. For the same molecule, the “Coelenteramide (EDTA-containing buffer) Fluorescence intensity (rlu)” value [3] was 11.8 rlu and the “Coelenteramide (EDTA-containing buffer) Maximum fluorescence wavelength λmax (nm)” value [3] was 475.5 nm.
With `O=C(Cc1ccc(O)cc1)Nc1ncc(-c2ccc(O)cc2)nc1-c1cccc2ccccc12` [Compound 4d, 2-(4-Hydroxyphenyl)-N-[5-(4-hydroxyphenyl)-3-(naphthalen-1-yl)pyrazin-2-yl]acetamide] the “Semi-synthetic gFP … (rlu)” value (apoaequorin [1]) was 58.8 rlu, the “Semi-synthetic gFP … (nm)” value (apoaequorin [1]) was 504.5 nm and the Fluorescence intensity (apoaequorin [2]) was 98.3 rlu. For the same molecule, the “Semi-synthetic BFP” value (apoaequorin [2]) was 487.0 nm, the “Coelenteramide (Buffer containing CaCl2) Fluorescence intensity (rlu)” value [3] was 12.9 rlu and the “Coelenteramide (Buffer containing CaCl2) Maximum fluorescence wavelength λmax (nm)” value [3] was 463.5 nm. The “Coelenteramide (EDTA-containing buffer) Fluorescence intensity (rlu)” value [3] was 12.4 rlu and the “Coelenteramide (EDTA-containing buffer) Maximum fluorescence wavelength λmax (nm)” value [3] was 462.5 nm.
In the case of `O=C(Cc1ccc(O)cc1)Nc1ncc(-c2ccc(O)cc2)nc1-c1ccc2ccccc2c1` [Compound 4e, 2-(4-Hydroxyphenyl)-N-[5-(4-hydroxyphenyl)-3-(naphthalen-2-yl)pyrazin-2-yl]acetamide], the “Semi-synthetic gFP … (rlu)” value (apoaequorin [1]) is reported as 72.6 rlu, the “Semi-synthetic gFP … (nm)” value (apoaequorin [1]) is reported as 487.0 nm and the Fluorescence intensity (apoaequorin [2]) is reported as 85.6 rlu. For the same molecule, the “Semi-synthetic BFP” value (apoaequorin [2]) was 492.5 nm, the “Coelenteramide (Buffer containing CaCl2) Fluorescence intensity (rlu)” value [3] was 28.6 rlu and the “Coelenteramide (Buffer containing CaCl2) Maximum fluorescence wavelength λmax (nm)” value [3] was 478.0 nm. The “Coelenteramide (EDTA-containing buffer) Fluorescence intensity (rlu)” value [3] was 28.9 rlu and the “Coelenteramide (EDTA-containing buffer) Maximum fluorescence wavelength λmax (nm)” value [3] was 478.0 nm.
With `O=C(Cc1ccc(O)cc1)Nc1ncc(-c2ccc(O)cc2)nc1-c1cc2ccccc2s1` [Compound 4h, N-[3-(Benzo[b]thiophen-2-yl)-5-(4-hydroxyphenyl)pyrazin-2-yl]-2-(4-hydroxyphenyl) acetamide] the Fluorescence intensity (apoaequorin [2]) was 153.3 rlu, the “Semi-synthetic BFP” value (apoaequorin [2]) was 427.0 nm and the “Coelenteramide (Buffer containing CaCl2) Fluorescence intensity (rlu)” value [3] was 101.2 rlu. For the same molecule, the “Coelenteramide (Buffer containing CaCl2) Maximum fluorescence wavelength λmax (nm)” value [3] was 426.5 nm, the “Coelenteramide (EDTA-containing buffer) Fluorescence intensity (rlu)” value [3] was 115.2 rlu and the “Coelenteramide (EDTA-containing buffer) Maximum fluorescence wavelength λmax (nm)” value [3] was 426.5 nm.
With `O=C(Cc1ccc(O)cc1)Nc1ncc(-c2ccc(O)cc2)nc1-c1ccc(-c2cccs2)s1` [Compound 4m, N-[3-(2,2′-Bithiophen-5-yl)-5-(4-hydroxyphenyl)pyrazin-2-yl]-2-(4-hydroxyphenyl) acetamide] the “Semi-synthetic gFP … (rlu)” value (apoaequorin [1]) was 163.8 rlu, the “Semi-synthetic gFP … (nm)” value (apoaequorin [1]) was 482.5 nm and the Fluorescence intensity (apoaequorin [2]) was 182.4 rlu. For the same molecule, the “Semi-synthetic BFP” value (apoaequorin [2]) was 457.5 nm.
For `CN(C)c1ccc(-c2nc(-c3ccc(O)cc3)cnc2NC(=O)Cc2ccc(O)cc2)cc1` [Compound 4n, N-[3-{4-(Dimethylamino)phenyl}-5-(4-hydroxyphenyl)pyrazin-2-yl]-2-(4-hydroxyphenyl)acetamide], the “Semi-synthetic gFP … (rlu)” value (apoaequorin [1]) was 151.5 rlu, the “Semi-synthetic gFP … (nm)” value (apoaequorin [1]) was 485.5 nm and the Fluorescence intensity (apoaequorin [2]) was 231.3 rlu. The “Semi-synthetic BFP” value (apoaequorin [2]) was 487.5 nm.
For `O=C(Cc1ccc(O)cc1)Nc1ncc(-c2ccc(O)cc2)nc1Br` [Compound 4t, N-[3-Bromo-5-(4-hydroxyphenyl)pyrazin-2-yl]-2-(4-hydroxyphenyl)acetamide], the “Semi-synthetic gFP … (rlu)” value (apoaequorin [1]) was 22.0 rlu, the “Semi-synthetic gFP … (nm)” value (apoaequorin [1]) was 482.5 nm and the “Coelenteramide (Buffer containing CaCl2) Fluorescence intensity (rlu)” value [3] was 12.1 rlu. The “Coelenteramide (Buffer containing CaCl2) Maximum fluorescence wavelength λmax (nm)” value [3] was 482.0 nm, the “Coelenteramide (EDTA-containing buffer) Fluorescence intensity (rlu)” value [3] was 11.8 rlu and the “Coelenteramide (EDTA-containing buffer) Maximum fluorescence wavelength λmax (nm)” value [3] was 480.5 nm.
For `O=C(Nc1ccc(O)cc1)Nc1ncc(-c2ccc(O)cc2)nc1Cc1ccccc1` [Compound 4u, 1-[3-Benzyl-5-(4-hydroxyphenyl)pyrazin-2-yl]-3-(4-hydroxyphenyl)urea], the “Semi-synthetic gFP … (rlu)” value (apoaequorin [1]) was 11.4 rlu, the “Semi-synthetic gFP … (nm)” value (apoaequorin [1]) was 494.5 nm and the “Coelenteramide (Buffer containing CaCl2) Fluorescence intensity (rlu)” value [3] was 0.9 rlu. For the same molecule, the “Coelenteramide (Buffer containing CaCl2) Maximum fluorescence wavelength λmax (nm)” value [3] was 445.5 nm, the “Coelenteramide (EDTA-containing buffer) Fluorescence intensity (rlu)” value [3] was 0.7 rlu and the “Coelenteramide (EDTA-containing buffer) Maximum fluorescence wavelength λmax (nm)” value [3] was 440.5 nm.
In the case of `O=C(Nc1ncc(-c2ccc(O)cc2)nc1Cc1ccccc1)c1ccc(O)cc1` [Compound 4x, N-[3-Benzyl-5-(4-hydroxyphenyl)pyrazin-2-yl]-4-hydroxybenzamide], the Fluorescence intensity (apoaequorin [2]) is reported as 36.8 rlu, the “Semi-synthetic BFP” value (apoaequorin [2]) is reported as 485.0 nm and the “Coelenteramide (Buffer containing CaCl2) Fluorescence intensity (rlu)” value [3] is reported as 1.4 rlu. The “Coelenteramide (Buffer containing CaCl2) Maximum fluorescence wavelength λmax (nm)” value [3] was 450.0 nm, the “Coelenteramide (EDTA-containing buffer) Fluorescence intensity (rlu)” value [3] was 1.3 rlu and the “Coelenteramide (EDTA-containing buffer) Maximum fluorescence wavelength λmax (nm)” value [3] was 449.0 nm.
With `O=C(Nc1ncc(-c2ccc(O)cc2)nc1Cc1ccccc1)c1cccc(O)c1` [Compound 4y, N-[3-Benzyl-5-(4-hydroxyphenyl)pyrazin-2-yl]-3-hydroxybenzamide] the “Semi-synthetic gFP … (rlu)” value (apoaequorin [1]) was 44.8 rlu, the “Semi-synthetic gFP … (nm)” value (apoaequorin [1]) was 492.0 nm and the “Coelenteramide (Buffer containing CaCl2) Fluorescence intensity (rlu)” value [3] was 1.4 rlu. The “Coelenteramide (Buffer containing CaCl2) Maximum fluorescence wavelength λmax (nm)” value [3] was 457.0 nm, the “Coelenteramide (EDTA-containing buffer) Fluorescence intensity (rlu)” value [3] was 1.3 rlu and the “Coelenteramide (EDTA-containing buffer) Maximum fluorescence wavelength λmax (nm)” value [3] was 456.0 nm.
